Laboratory results reported in patent US20100111908A1, “Induction of Renal Cells for Treatment of Kidney Disease” (priority 2008, published 2010).

Columns and labels:
[1] = molecular target: T1, CaR (Homo sapiens, UniProt P41180); conditions: activation of CaR; Olszak et al., 2000; cited from earlier work
T1 construct: host or cells: monocytes
T1 sequence (P41180 20-1078): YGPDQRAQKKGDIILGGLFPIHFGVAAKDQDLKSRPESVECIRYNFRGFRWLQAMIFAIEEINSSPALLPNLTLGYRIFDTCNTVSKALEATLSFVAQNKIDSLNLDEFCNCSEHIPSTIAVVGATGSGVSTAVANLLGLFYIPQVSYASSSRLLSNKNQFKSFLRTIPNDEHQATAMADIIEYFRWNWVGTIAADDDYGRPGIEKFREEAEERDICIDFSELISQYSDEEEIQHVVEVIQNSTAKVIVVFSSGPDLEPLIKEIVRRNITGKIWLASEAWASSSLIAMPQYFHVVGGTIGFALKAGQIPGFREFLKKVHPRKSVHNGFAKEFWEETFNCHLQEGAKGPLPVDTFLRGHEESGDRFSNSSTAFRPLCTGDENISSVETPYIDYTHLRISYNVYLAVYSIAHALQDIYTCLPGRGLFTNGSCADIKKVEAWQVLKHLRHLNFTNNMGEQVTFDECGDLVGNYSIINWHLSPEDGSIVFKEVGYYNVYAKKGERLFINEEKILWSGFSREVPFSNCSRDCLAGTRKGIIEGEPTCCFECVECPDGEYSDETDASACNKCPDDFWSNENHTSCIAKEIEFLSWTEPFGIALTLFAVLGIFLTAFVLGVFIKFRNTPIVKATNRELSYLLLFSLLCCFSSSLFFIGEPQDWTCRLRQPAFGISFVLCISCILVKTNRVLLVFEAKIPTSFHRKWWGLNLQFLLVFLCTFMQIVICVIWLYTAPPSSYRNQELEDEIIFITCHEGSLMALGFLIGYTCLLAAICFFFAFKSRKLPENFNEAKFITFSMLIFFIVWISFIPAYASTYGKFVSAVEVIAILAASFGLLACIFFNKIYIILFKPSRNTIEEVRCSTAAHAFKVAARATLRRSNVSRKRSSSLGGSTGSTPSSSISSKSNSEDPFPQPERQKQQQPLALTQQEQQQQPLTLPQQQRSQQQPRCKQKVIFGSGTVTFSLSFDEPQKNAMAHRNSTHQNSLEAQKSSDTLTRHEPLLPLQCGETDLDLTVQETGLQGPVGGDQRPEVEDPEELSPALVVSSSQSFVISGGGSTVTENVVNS

[2] = test system: Lin− cells; test: qRT-PCR of renal developmentally regulated genes in induced cells; assay type: cell-based, mouse; conditions: TSA 15 nM, 6 h at 2nd stage vs vehicle, cells after 3rd stage
Procedure: Lin^− cells, which include lineage undifferentiated hematopoietic stem cells and progenitor cells, were isolated to 99.8% purity by FACS as described (Lin et al., 2003). Purified Lin^− cells were cultured sequentially in the presence of cytokines including IL-3, IL-6, and stem cell factor for 48 hr (1st stage); nephrogenic factors including retinoic acid, activin-A and BMP7 for 48 hr (2nd stage); and epithelial growth factors including EGF, IGF-1 and HGF for 72 hr (3rd stage). The total induction period is 1 week. Cytokine treatment is known to stimulate HSC to enter the cell cycle and the cells remain as hematopoietic cells after 48 hr in these culture conditions (Luskey et al., 1992; Reddy et al., 1997). The nephrogenic factors that were used can induce differentiation of mouse ES cells into renal epithelial cells as reported by Kim and Dressler (2005). Therefore, the inventors reasoned that nephrogenic factors might induce cycling Lin^− cells to select a renal cell fate. Further treatment of the cells with epithelial growth factors would promote epithelial growth. After the 1st stage, the cells remained small, round, and discrete (FIG. 5B, top left). After the 3rd stage, the cells increased in size and formed floating spheres (FIG. 5B, top right). The inventors took the precaution of only transferring cells in suspension to new culture dishes. The adherent cells that might represent bone marrow stromal/stem cells (MSC) were discarded. In some experiments, the inventors continued the cultures for an additional 7 days after the induction period (total 14 days) and observed an epithelial-like morphology in the cells (FIG. 5B, bottom). In the Examples section, the inventors will use the term “induced cells” to refer to cells after the 3rd stage culture (1 week induction).
(§1) The HDAC inhibitor TSA increases expression of renal developmentally regulated genes in induced cells. Although HDAC inhibitor trichostatin A (TSA) is a non-selective inhibitor of HDACs, TSA only alter 2-10% of the genes tested in multiple cell lines (Gray et al., 2004; Lee et al., 2006b; Mitsiades et al., 2004; Peart et al., 2005).

[3] = test system: Lin− cells isolated from cre^ksp; R26R-EYFP mice; test: Flow cytometry of EYFP+ cells (renal cell conversion); assay type: cell-based, mouse; conditions: TSA 15 nM, 6 h at 2nd stage
Procedure: To confirm renal conversion, Lin^− cells were isolated from bitransgenic creksp; R26R-EYFP mice that express EYFP specifically in the tubular epithelial cells of the kidney. […] However, after the 3rd stage, the induced cells expressed EYFP mRNA by RT-PCR analysis (FIG. 7B) and EYFP protein by immunostaining (FIG. 7C).
Treatment with TSA results in a 6-fold increase in EYFP^+ cells. Lin^− cells isolated from cre^ksp; R26R-EYFP mice were treated with vehicle or TSA (15 nM, 6 h) at the 2nd stage and EYFP^+ cells were quantified by flow cytometry analysis.

[4] = test system: cadherin 6, cadherin 16, Lim1, Gdnf and Pax2 promoters; test: ChIP assay of histone acetylation on renal gene promoters; assay type: cell-based, mouse; conditions: TSA 15 nM, 6 h at 2nd stage vs vehicle; ChIP after 3rd stage
Excerpt: Increased histone acetylation accompanies cell conversion. To begin to understand the mechanisms of cell conversion and its associated nuclear reprogramming, the inventors examined the possibility of epigenetic regulation by histone modifications and chromatin remodeling. Chromatin modifications were detected using chromatin immunoprecipitation assays (ChIP assays) as described (Shang et al., 2000). Antibodies to acetylated histones H3 and H4 and tri-methylated histone H3 (lysine 9 or K9) were used for immunoprecipitation. […] In contrast, there was no change in tri-methylation of H3K9 on the cadherin 6 promoter (top panel). Acetylation of H3 but not H4 on the cadherin 16 promoter was increased after the 3rd stage. Tri-methylation of H3K9 on the cadherin 16 promoter seemed to increase after the 3rd stage.
as §1

[5] = test system: Lin− cells; test: Cell death in 2nd stage induction culture; assay type: cell-based, mouse; conditions: about 15 nM, 6 hr in the 2nd stage
Excerpt: Use of HDAC inhibitors may take into account the fact that high dose and/or long period of HDAC inhibition may induce widespread changes in gene expression. For example, treatment of metanephric organs cultures with HDAC inhibitor induces significant disturbance in the transcription network (Chen et al., 2007).

[6] = test system: lymphoid cell line / multiple cell lines; conditions: cited from earlier work
[7] = test system: bone marrow stem cells; conditions: Tayaramma et al., 2006; cited from earlier work
[8] = test system: HDAC; conditions: Vigushin et al., 2001, cited from earlier work

Structure (SMILES) | monocyte migration in response to calcium [1] | Cdh 6 -Fold increase ([2]; *p<0.05, n=3) | Cdh 16 -Fold increase ([2]; *p<0.05, n=3) | Gdnf -Fold increase ([2]; *p<0.05, n=3) | Lim1 -Fold increase ([2]; *p<0.05, n=3) | Osr 1 -Fold increase ([2]; *p<0.05, n=3) | Pax2 -Fold increase ([2]; *p<0.05, n=3) | 18s RNA -Fold increase ([2]; control gene, n=3) [Fold] | Six2 -Fold increase ([2]; n=3) [Fold] | increase in EYFP+ cells (cell conversion) vs vehicle [3] [fold] | EYFP+ cells after the 3rd stage ([3]; flow cytometry, vehicle group 6.3%) [%] | histone H3 and H4 acetylation on promoters of renal genes [4] | cell death [5] | proportion of expressed genes altered ([6]; 340 expressed genes in a lymphoid cell line, Van Lint et al., 1996) [%] | proportion of genes tested altered ([6]; multiple cell lines, literature) | differentiation of insulin-producing cells [7] | IC50 of inhibition of HDAC activity [8] | reversibility of inhibition of HDAC activity ([8]; in cell cultures and in vivo)
COc1cccc([C@@H](C)NCCCc2ccccc2)c1 [NPS R-467] | increases |  |  |  |  |  |  |  |  |  |  |  |  |  |  |  |  | 
CC(/C=C/C(=O)NO)=C\[C@@H](C)C(=O)c1ccc(N(C)C)cc1 [TSA, trichostatin A] |  | 16.5* Fold | 4.39* Fold | 5.39* Fold | 8.29* Fold | 14.95* Fold | 3.28* Fold | −0.06 | 1.3 | 6 | 37.9 | increased histone H3 and H4 acetylation | no increase in cell death | 2 | 2-10% | led to differentiation of insulin-producing cells | nanomolar range | reversible
